Experimental data as given in ChEMBL document CHEMBL1201862, “PubChem BioAssay data set” (2004).
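Growth conditions: 96-well plates. Treatment: test compound, 48 hours, 5 concentrations. Analysis: linear interpolation between bracketing concentrations; unreached endpoints set to highest concentration. Here, GI50 denotes the concentration required for 50% inhibition of growth.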 Calls of active or inactive are those of the source. Rule as the data show it: active = GI50 up to about 1.1 µM and inactive = higher.

Key:
Experiment in all cases: inhibition of tumour cell growth, NCI panel, 48 h
UO-31 = system: UO-31
UACC-257 = system: UACC-257
SN12C = system: SN12C
SK-MEL-2 = system: SK-MEL-2
UACC-62 = system: UACC-62
EKVX = system: EKVX
SK-OV-3 = system: SK-OV-3
RXF 393 = system: RXF 393
SNB-75 = system: SNB-75
OVCAR-3 = system: OVCAR-3
ACHN = system: ACHN
U-251 = system: U-251
NCI-H522 = system: NCI-H522
HCT-116 = system: HCT-116
KM12 = system: KM12
HOP-92 = system: HOP-92

Row | Structure (SMILES) | GI50 (UO-31) | GI50 (UACC-257) | GI50 (SN12C) | GI50 (SK-MEL-2) | GI50 (UACC-62) | GI50 (EKVX) | GI50 (SK-OV-3) | GI50 (RXF 393) | GI50 (SNB-75) | GI50 (OVCAR-3) | GI50 (ACHN) | GI50 (U-251) | GI50 (NCI-H522) | GI50 (HCT-116) | GI50 (KM12) | GI50 (HOP-92)
1 | OCC(O)C(O)C(O)c1nn(-c2ccc(F)cc2)c2nc3cc(Cl)c(Cl)cc3nc12 (configuration not stated) | 33.5 µM (inactive) | 21.4 µM (inactive) | 22.1 µM (inactive) | 17.3 µM (inactive) | 16.9 µM (inactive) | 18.9 µM (inactive) | 23.3 µM (inactive) | 15.6 µM (inactive) | 3.94 µM (inactive) | 21.8 µM (inactive) | > 10 µM (inactive) | 29.8 µM (inactive) | 14.9 µM (inactive) | 24.5 µM (inactive) | 23.3 µM (inactive) | –
2 | Brc1cc(C2OCCCO2)ccc1OCc1ccccc1 | 52.4 µM (inactive) | 31.9 µM (inactive) | > 100 µM (inactive) | 81.7 µM (inactive) | 47.9 µM (inactive) | 52.8 µM (inactive) | > 100 µM (inactive) | 67.9 µM (inactive) | 45.3 µM (inactive) | 74.1 µM (inactive) | 73.6 µM (inactive) | – | 26.9 µM (inactive) | – | 33.7 µM (inactive) | 33.6 µM (inactive)
3 | O=C1C=CC2(CCCCCCC2=O)CC1 (configuration not stated) | > 100 µM (inactive) | > 100 µM (inactive) | > 100 µM (inactive) | – | > 100 µM (inactive) | > 100 µM (inactive) | > 100 µM (inactive) | > 100 µM (inactive) | 57.9 µM (inactive) | > 100 µM (inactive) | > 100 µM (inactive) | > 100 µM (inactive) | > 100 µM (inactive) | > 100 µM (inactive) | > 100 µM (inactive) | > 100 µM (inactive)
4 | O=C(/C=C/c1c(O)ccc2ccccc12)c1ccccc1Cl | 49.1 µM (inactive) | 19.7 µM (inactive) | 26.7 µM (inactive) | 27.7 µM (inactive) | 15.8 µM (inactive) | 67.9 µM (inactive) | > 100 µM (inactive) | 26.2 µM (inactive) | 25.3 µM (inactive) | 26.1 µM (inactive) | 34.3 µM (inactive) | 37.8 µM (inactive) | 26.7 µM (inactive) | 21.2 µM (inactive) | 38.5 µM (inactive) | 23.2 µM (inactive)
5 | CCCCCCCCC(=O)NCCCNCCCNC(=O)CCCCCCCC | 13.2 µM (inactive) | 7.1 µM (inactive) | 6.19 µM (inactive) | 3.25 µM (inactive) | 5.79 µM (inactive) | 14.9 µM (inactive) | 14.3 µM (inactive) | 8.89 µM (inactive) | – | 15.5 µM (inactive) | 5.75 µM (inactive) | 3.25 µM (inactive) | 5.05 µM (inactive) | 5.04 µM (inactive) | 2.01 µM (inactive) | 3.85 µM (inactive)
6 | CN(C)c1ccc(/C=C(/C(=O)O)c2csc(-c3nc(/C(=C\c4ccc(N(C)C)cc4)C(=O)O)cs3)n2)cc1 | 60.3 µM (inactive) | > 100 µM (inactive) | > 100 µM (inactive) | > 100 µM (inactive) | 80.9 µM (inactive) | > 100 µM (inactive) | > 100 µM (inactive) | > 100 µM (inactive) | > 100 µM (inactive) | > 100 µM (inactive) | > 100 µM (inactive) | > 100 µM (inactive) | – | > 100 µM (inactive) | > 100 µM (inactive) | > 100 µM (inactive)
7 | CCOC(=O)C(CCC(N)=O)(CCC(=O)OC)C(=O)OCC | > 100 µM (inactive) | > 100 µM (inactive) | > 100 µM (inactive) | – | > 100 µM (inactive) | > 100 µM (inactive) | > 100 µM (inactive) | > 100 µM (inactive) | > 100 µM (inactive) | > 100 µM (inactive) | > 100 µM (inactive) | > 100 µM (inactive) | > 100 µM (inactive) | > 100 µM (inactive) | > 100 µM (inactive) | > 100 µM (inactive)
8 | COc1ccc(C(Cl)=C(c2ccc(OCCN(C)C)cc2)c2ccc(OCCN(C)C)cc2)cc1 | 1.58 µM (inactive) | – | 2.65 µM (inactive) | 1.68 µM (inactive) | 1.7 µM (inactive) | 5.11 µM (inactive) | 2.53 µM (inactive) | 1.13 µM (inactive) | 1.44 µM (inactive) | 2.09 µM (inactive) | 1.82 µM (inactive) | 1.58 µM (inactive) | 1.57 µM (inactive) | 1.13 µM (inactive) | 1.37 µM (inactive) | 2.16 µM (inactive)
9 | Cc1nc2nnnn2c2c1C(=O)Nc1ccccc1N2 | > 100 µM (inactive) | > 100 µM (inactive) | > 100 µM (inactive) | > 100 µM (inactive) | > 100 µM (inactive) | 79.8 µM (inactive) | > 100 µM (inactive) | > 100 µM (inactive) | > 100 µM (inactive) | > 100 µM (inactive) | 73.3 µM (inactive) | > 100 µM (inactive) | > 100 µM (inactive) | > 100 µM (inactive) | > 100 µM (inactive) | > 100 µM (inactive)
10 | COc1ccc(CNc2cnc3ccc(N)cc3n2)cc1 | > 100 µM (inactive) | > 100 µM (inactive) | > 100 µM (inactive) | > 100 µM (inactive) | – | > 100 µM (inactive) | – | – | 64.6 µM (inactive) | > 100 µM (inactive) | > 100 µM (inactive) | – | > 100 µM (inactive) | 0.0622 µM (active) | > 100 µM (inactive) | –
11 | O=C(O)CCNS(=O)(=O)c1ccc(NC(=O)c2ccccc2)cc1 | > 100 µM (inactive) | > 100 µM (inactive) | > 100 µM (inactive) | > 100 µM (inactive) | > 100 µM (inactive) | > 100 µM (inactive) | > 100 µM (inactive) | > 100 µM (inactive) | > 100 µM (inactive) | > 100 µM (inactive) | > 100 µM (inactive) | > 100 µM (inactive) | > 100 µM (inactive) | – | > 100 µM (inactive) | > 100 µM (inactive)
12 | O=C(Cc1nc2ccccc2s1)NC12CC3CC(CC(C3)C1)C2 | > 100 µM (inactive) | > 100 µM (inactive) | > 100 µM (inactive) | > 100 µM (inactive) | > 100 µM (inactive) | > 100 µM (inactive) | > 100 µM (inactive) | – | > 100 µM (inactive) | – | > 100 µM (inactive) | > 100 µM (inactive) | > 100 µM (inactive) | > 100 µM (inactive) | > 100 µM (inactive) | > 100 µM (inactive)
13 | Cc1ccc(/N=C2\N=C(N3CC(C)OC(C)C3)c3ccccc32)cc1 (configuration not stated) | 21.3 µM (inactive) | 22.7 µM (inactive) | 34.5 µM (inactive) | 24.4 µM (inactive) | 29.6 µM (inactive) | 32.6 µM (inactive) | – | 12.6 µM (inactive) | 27.9 µM (inactive) | 24.3 µM (inactive) | 28.6 µM (inactive) | 39.4 µM (inactive) | > 10 µM (inactive) | 20.2 µM (inactive) | 22 µM (inactive) | 1.41 µM (inactive)
14 | Cc1ccc(C)c(NC(=O)CC/C(=N\NC(=O)c2c(O)ccc3ccccc23)C(C)C(=O)c2ccc(O)cc2)c1 (configuration not stated) | 17.9 µM (inactive) | 31.9 µM (inactive) | 38.6 µM (inactive) | 24.7 µM (inactive) | 17.3 µM (inactive) | – | – | 51.9 µM (inactive) | 20.2 µM (inactive) | 23.3 µM (inactive) | 25.2 µM (inactive) | 31.8 µM (inactive) | 19.9 µM (inactive) | 57.4 µM (inactive) | 51.2 µM (inactive) | 46.3 µM (inactive)
15 | COc1ccc2c(c1)C(=O)N1CCOC1C2C(=O)O (configuration not stated) | > 100 µM (inactive) | > 100 µM (inactive) | > 100 µM (inactive) | – | > 100 µM (inactive) | > 100 µM (inactive) | > 100 µM (inactive) | – | > 100 µM (inactive) | > 100 µM (inactive) | > 100 µM (inactive) | > 100 µM (inactive) | > 100 µM (inactive) | > 100 µM (inactive) | > 100 µM (inactive) | > 100 µM (inactive)
16 | CN(C)CCNC(=O)c1cccc2[nH]c(-c3cccnc3)nc12 | 17.8 µM (inactive) | 18.5 µM (inactive) | 18.2 µM (inactive) | 25.8 µM (inactive) | 18.9 µM (inactive) | 22.8 µM (inactive) | 22.6 µM (inactive) | 16.9 µM (inactive) | 20.9 µM (inactive) | 20.8 µM (inactive) | 16.9 µM (inactive) | 22.6 µM (inactive) | – | 9.55 µM (inactive) | 36.5 µM (inactive) | 22.6 µM (inactive)
17 | CCOC(=O)NC(=O)c1cn(CCN2CCN(C(=O)CNC(=O)CNC(=O)Cn3cc(C(=O)NC(=O)OCC)c(=O)[nH]c3=O)CC2)c(=O)[nH]c1=O | > 100 µM (inactive) | > 100 µM (inactive) | > 100 µM (inactive) | > 100 µM (inactive) | > 100 µM (inactive) | – | > 100 µM (inactive) | – | > 100 µM (inactive) | > 100 µM (inactive) | > 100 µM (inactive) | > 100 µM (inactive) | > 100 µM (inactive) | > 100 µM (inactive) | > 100 µM (inactive) | > 100 µM (inactive)
18 | Cn1c(=O)c2c(nc3n2CCC(=O)N3)n(C)c1=O | > 100 µM (inactive) | > 100 µM (inactive) | > 100 µM (inactive) | > 100 µM (inactive) | > 100 µM (inactive) | > 100 µM (inactive) | > 100 µM (inactive) | > 100 µM (inactive) | – | – | > 100 µM (inactive) | > 100 µM (inactive) | > 100 µM (inactive) | – | > 100 µM (inactive) | > 100 µM (inactive)
19 | CCCCCCCCCCCCSC(=S)c1c(C)[nH]n(-c2ccccc2)c1=O | 13.6 µM (inactive) | 8.04 µM (inactive) | 8.28 µM (inactive) | – | 3.52 µM (inactive) | 19.1 µM (inactive) | 16.3 µM (inactive) | 10.3 µM (inactive) | – | 13.3 µM (inactive) | 16.9 µM (inactive) | 2.85 µM (inactive) | – | – | – | 25.8 µM (inactive)
